The values that follow come from paper PMC9765455 (Science Translational Medicine, 2022).

For series [1], the system named is SARS-CoV-2 Delta. The series can be described thus: CPE-based cell viability assay (MTT). To be noted: read-out: EC50 against SARS-CoV-2 Delta.
Series [2] has as its system COVID-19. To be noted: cited from earlier work.
Series [3] has as its system host DNA. The arrangement: method as in PMID 33961695. To be noted: cell-based assays; cited from earlier work.
The subject of series [4] is P-glycoprotein (P-gp). To be noted: cited from earlier work.
The test system of series [5] is SARS-CoV-2 VOCs. The series can be described thus: CPE-based MTT assay against SARS-CoV-2 VOCs in 293T-hACE2-TMPRSS2 cells (fig. S4). To be noted: 293T-hACE2-TMPRSS2, fig. S4. It is filed as cell-based. Here is the method:
Antiviral compounds and antibodies were serially diluted 2-fold increments by culture medium containing 2% FBS and plated on 96-well microplates. The diluted compounds in the plates were mixed with SARS-CoV-2 and cell suspensions. The diluted antibodies were initially incubated with SARS-CoV-2 for 30 minutes and then added to the cell suspension. Cells in the plates were cultured for 2 to 3 days, and then exposed to MTT (3-[4,5-dimethyl-2-thiazolyl]-2,5-diphenyl-2H-tetrazolium bromide) (Nacalai Tesque). Cell viability was determined by measurement of absorbance at 560 nm and 690 nm. EC50 values were defined in GraphPad Prism version 8.4.3 (GraphPad Software) with a variable slope (four parameters).
Cytopathic effect (CPE) in 293T-hACE2-TMPRSS2 cells induced by SARS-CoV-2 infection was measured at 3 dpi by 3-[4,5-dimethyl-2-thiazolyl]-2,5-diphenyl-2H-tetrazolium bromide (MTT) […]
assay. […] Uninfected cells
(1 picture or pasted object on this page, not shown here)
A general note: Tetrazolium assays rely on reduction of a dye to a coloured formazan, in cell work by metabolically active cells.

In series [6] the test system is Calu-3 cells, Vero-TMPRSS2 cells, primary human bronchial epithelial cells. Kind of series: Compound cytotoxicity assay (CellTiter-Glo / LDH-Glo). Type of series: cell-based. As to conditions: at the examined concentrations, 3 days.
For series [7], the system named is SARS-CoV-2 Alpha (lineage B.1.1.7). More on the design: species or system Syrian hamsters. To be noted: hamster, in vivo, 200 mg/kg.
Series [8] concerns SARS-CoV-2 Gamma (lineage P.1). More on the design: species or system Syrian hamsters. To be noted: hamster, in vivo, 200 mg/kg.
Series [9] relates to SARS-CoV-2 Omicron BA.1. The arrangement: species or system Syrian hamsters. To be noted: hamster, in vivo, 200 mg/kg.
The subject of series [10] is SARS-CoV-2 Omicron BA.2. The arrangement: species or system Syrian hamsters. To be noted: hamster, in vivo, 200 mg/kg.
The subject of series [11] is SARS-CoV-2 Omicron BA.5. More on the design: species or system Syrian hamsters. To be noted: hamster, in vivo, 200 mg/kg.
The subject of series [12] is SARS-CoV-2 Omicron BA.2.75. The arrangement: species or system Syrian hamsters. To be noted: hamster, in vivo, 200 mg/kg.
For series [13] the following is noted: male, Syrian, hamster, in vivo.
Series [14] deals with SARS-CoV. To be noted: cited from earlier work.
Series [15] concerns MERS-CoV. As to conditions: cited from earlier work.
Series [16] relates to HCoV-OC43. As to conditions: cited from earlier work.
The conditions of series [17]: healthy adults, phase 1 trial; cited from earlier work.
In series [18] the test system is P-glycoprotein (P-gp). The series can be described thus: P-gp substrate assessment. As to conditions: inferred from CP-100356 enhancement in Vero-TMPRSS2.
Series [19] in a line: Pharmacokinetics after single oral administration.
The mark [20] stands for this setting: Severe acute respiratory syndrome coronavirus 2, 293 T-hACE2-TMPRSS2.
Where [21] appears, read: Severe acute respiratory syndrome coronavirus 2, Vero/TMPRSS2, Vero-TMPRSS2.
The mark [22] stands for this setting: Severe acute respiratory syndrome coronavirus 2, Vero/TMPRSS2, Vero-TMPRSS2 with CP-100356.

Read-outs that look alike come from different tables or passages of the source.

Turning to `CC(C)C(=O)OC[C@H]1O[C@@H](n2ccc(NO)nc2=O)[C@H](O)[C@@H]1O` [Molnupiravir, reference compound], the figures for the EC50 in series [1] (setting [20]), in series [1] (setting [21]) and in series [1] (setting [22]) were 3680 ± 1090 nM, 3170 ± 217 nM and 2280 ± 118 nM, respectively. Moreover, in series [2] (clinical trial), the “decrease of the risk of hospitalization for COVID-19” value is given as 30%. The mutagenesis entry in series [3] was “mutagenesis not only for viral RNA but also for host DNA”.
Consider `O=c1nc(NO)ccn1[C@@H]1O[C@H](CO)[C@@H](O)[C@H]1O` [NHC, N-hydroxycytidine], for which the EC50 in series [1] (setting [20]) is 538 ± 142 nM; in series [1] (setting [21]) it was 360 ± 49.4 nM; in series [1] (setting [22]) it was 677 ± 8.89 nM.
Regarding `CC(C)(C)[C@H](NC(=O)C(F)(F)F)C(=O)N1C[C@H]2[C@@H]([C@H]1C(=O)N[C@H](C#N)C[C@@H]1CCNC1=O)C2(C)C` [Nirmatrelvir], the figures for the EC50 in series [1] (setting [20]), in series [1] (setting [21]) and in series [1] (setting [22]) were 37 ± 5.3 nM, over 1000 nM and 132 ± 32 nM, respectively. Besides, the “reduction in the risk of hospitalization or death” value in series [2] is on record as 88%. The “substrate of P-gp” value in series [4] is on record as “major substrates”.
For `CCC(CC)COC(=O)[C@H](C)N[P@](=O)(OC[C@H]1O[C@@](C#N)(c2ccc3c(N)ncnn23)[C@H](O)[C@@H]1O)Oc1ccccc1` [Remdesivir], the EC50 in series [1] (setting [20]) was under 3.9 nM; in series [1] (setting [21]) it was over 500 nM; in series [1] (setting [22]), 32 ± 4.52 nM. The “substrate of P-gp” value in series [4] is “major substrates”.
As to `Cn1cnc(Cn2c(=O)[nH]/c(=N\c3cc4cn(C)nc4cc3Cl)n(Cc3cc(F)c(F)cc3F)c2=O)n1` [S-217622], the EC50 in [1] (setting [20]) is 26 ± 6.65 nM; in series [1] (setting [21]), 407 ± 21.3 nM; in series [1] (setting [22]), 69 ± 11.2 nM; in series [14] it was 210 nM; in series [15] it was 1400 nM. The “antiviral activity against VOCs” value in series [5] is “exhibited antiviral activity against all VOCs”. In series [6], the cytotoxicity entry was “No cytotoxicity was observed”. Besides, the “Fig. 3B: Virus titer” value in series [7], in series [8], in series [9], in series [10], in series [11] and in series [12] was “n.d.(=100)” in each case. For the same compound, the “Fig. 3A: Viral RNA” value in [9] and in series [12] was “n.d.(=1)” in each case. Besides, the “time at which plasma concentration reached the maximum” value in series [13] lay in the range of 0.5 to 2.67 h. For the same compound, in [16], the concentration for an effect of 90% (EC90) was 74 nM. In [17], the bioavailability and tolerability result was “favorable bioavailability and tolerability”. The “substrate of P-gp” value in [18] is listed as “substrate of P-gp”. For the same compound, in [19] (10 to 100 mg/kg), the “Cmax and AUC dose proportionality” value is “increased more than the dose ratio”. The bioavailability result in series [19] (hamsters, plasma) is “excellent bioavailability”. The half-life in series [19] (male, Syrian, hamster, plasma, po, 100 mg/kg) was in the range of 3.43 to 4.46 h.

Usually EC90 stands for the point of the concentration-response curve where the effect stands at 90%. Broadly, the half-life is the time needed for the level to fall by half in the phase considered. Read a high half-life as slow decline.
